The experiment is described as follows: yeast 26S proteasome protease site inhibitors – biochemical, fluorogenic peptides, secondary, counter-screen for 26S proteasome disassembly project (AID 2132). The note with it: fluorogenic peptide cleavage rate, peptide cleavage rate with compound, at 100 µM, stronger effect = lower value.

Molecules are shown by their SMILES. Peptide text beside a SMILES is read from it. * marks the point of attachment. Cbz = O=C(OCc1ccccc1)*

As to `CC(C)C[C@@H](C=O)NC(=O)[C@H](CC(C)C)NC(=O)[C@H](CC(C)C)NC(=O)OCc1ccccc1` (Cbz-Leu-Leu-Leu-aldehyde), the cleavage rate (fluorescence units/min) came to 0.41 (with Ac-RLR-amc), 0.11 (with Ac-nLPnLD-amc) and 0 (with Suc-LLVY-amc).
On to `CC(=O)N1C(=O)C(=C2C=C(C)OC(C)=C2)c2ccccc21`, for which the cleavage rate (fluorescence units/min) reads like this: (with Ac-RLR-amc) 0.32; (with Ac-nLPnLD-amc) 0.2; (with Suc-LLVY-amc) 0.52.

(Values after PubChem BioAssay AID2132 (NMMLSC, 2009).)
